Source: ChEMBL document CHEMBL2163215, “Mitigating hERG Inhibition: Design of Orally Bioavailable CCR5 Antagonists as Potent Inhibitors of R5 HIV-1 Replication” (ACS Med Chem Lett, 2012)
Active and inactive are the calls of the source. The rule behind the calls is not given here.

Key:
[1] = tested on: Human immunodeficiency virus 1; test: Antiviral activity against R5 tropic HIV1 Ba-L infected human PBMC assessed as inhibition of viral replication by p-24 antigen specific ELISA; format: functional, organism-based; conditions: Human immunodeficiency virus 1, Ba-L
[2] = molecular target: C-C chemokine receptor type 2 (Homo sapiens) (UniProt P41597); conditions: at 5 µM
Chain of C-C chemokine receptor type 2 (Homo sapiens) (P41597 whole entry, looked up): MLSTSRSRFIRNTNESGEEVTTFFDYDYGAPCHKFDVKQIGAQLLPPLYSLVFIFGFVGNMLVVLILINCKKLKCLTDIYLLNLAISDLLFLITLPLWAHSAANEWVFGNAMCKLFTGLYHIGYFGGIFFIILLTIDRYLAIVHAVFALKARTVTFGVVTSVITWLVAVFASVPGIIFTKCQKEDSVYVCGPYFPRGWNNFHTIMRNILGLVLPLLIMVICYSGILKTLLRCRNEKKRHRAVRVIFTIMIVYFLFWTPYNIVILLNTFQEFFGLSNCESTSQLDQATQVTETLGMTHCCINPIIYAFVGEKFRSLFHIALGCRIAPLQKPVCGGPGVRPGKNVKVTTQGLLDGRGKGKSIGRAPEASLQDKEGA
Description: Antagonist activity at CCR2b at 5 uM by calcium flux assay

[3] = molecular target: T1, C-C chemokine receptor type 1 (Homo sapiens) (UniProt P32246); conditions: at 5 µM
T1 sequence (whole entry): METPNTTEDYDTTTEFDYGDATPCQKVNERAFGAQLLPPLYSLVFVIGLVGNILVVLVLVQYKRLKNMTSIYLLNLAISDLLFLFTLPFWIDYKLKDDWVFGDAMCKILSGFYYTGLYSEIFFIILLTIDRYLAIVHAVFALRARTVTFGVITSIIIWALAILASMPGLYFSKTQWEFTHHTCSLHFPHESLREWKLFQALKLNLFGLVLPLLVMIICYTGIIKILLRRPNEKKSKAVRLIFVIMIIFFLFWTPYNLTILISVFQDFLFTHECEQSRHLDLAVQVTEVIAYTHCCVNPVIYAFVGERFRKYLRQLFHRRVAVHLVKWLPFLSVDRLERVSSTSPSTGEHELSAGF
Description: Antagonist activity at CCR1 at 5 uM by calcium flux assay

[4] = molecular target: C-X-C chemokine receptor type 4 (Homo sapiens) (UniProt P61073); conditions: at 5 µM
Chain of C-X-C chemokine receptor type 4 (Homo sapiens) (P61073 whole entry): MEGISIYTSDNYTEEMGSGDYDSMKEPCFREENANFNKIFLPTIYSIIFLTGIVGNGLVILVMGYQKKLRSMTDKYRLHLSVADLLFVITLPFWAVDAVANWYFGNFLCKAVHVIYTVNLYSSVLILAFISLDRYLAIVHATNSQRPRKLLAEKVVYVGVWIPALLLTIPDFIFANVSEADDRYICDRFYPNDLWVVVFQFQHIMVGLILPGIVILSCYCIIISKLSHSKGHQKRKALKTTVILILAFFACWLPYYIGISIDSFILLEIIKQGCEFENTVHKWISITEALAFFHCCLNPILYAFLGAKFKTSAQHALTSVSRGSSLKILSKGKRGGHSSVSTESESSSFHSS
Description: Antagonist activity at CXCR4 at 5 uM by calcium flux assay

[5] = molecular target: T2, C-X-C chemokine receptor type 2 (Homo sapiens) (UniProt P25025); conditions: at 5 µM
T2 sequence (whole entry): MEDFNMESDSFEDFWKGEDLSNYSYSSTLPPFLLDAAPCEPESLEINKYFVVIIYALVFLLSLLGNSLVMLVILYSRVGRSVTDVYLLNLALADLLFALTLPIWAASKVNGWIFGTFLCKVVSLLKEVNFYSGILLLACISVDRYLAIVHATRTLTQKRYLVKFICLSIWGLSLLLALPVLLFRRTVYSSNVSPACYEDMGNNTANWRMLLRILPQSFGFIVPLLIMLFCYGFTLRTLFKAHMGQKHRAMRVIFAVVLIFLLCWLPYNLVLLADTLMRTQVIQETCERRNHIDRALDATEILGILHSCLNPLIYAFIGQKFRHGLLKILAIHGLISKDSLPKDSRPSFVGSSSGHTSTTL
Description: Antagonist activity at CXCR2 at 5 uM by calcium flux assay

[6] = molecular target: T3, C-X-C chemokine receptor type 1 (Homo sapiens) (UniProt P25024); conditions: at 5 µM
T3 sequence (whole entry): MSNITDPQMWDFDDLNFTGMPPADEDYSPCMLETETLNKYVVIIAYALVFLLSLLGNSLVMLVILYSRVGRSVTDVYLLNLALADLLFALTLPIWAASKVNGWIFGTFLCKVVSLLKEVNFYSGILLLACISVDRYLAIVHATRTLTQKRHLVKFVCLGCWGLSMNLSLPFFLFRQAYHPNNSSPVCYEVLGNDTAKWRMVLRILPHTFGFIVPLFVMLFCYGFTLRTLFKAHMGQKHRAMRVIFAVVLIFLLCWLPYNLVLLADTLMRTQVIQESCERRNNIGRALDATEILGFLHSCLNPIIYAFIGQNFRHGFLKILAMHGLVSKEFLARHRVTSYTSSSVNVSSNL
Description: Antagonist activity at CXCR1 at 5 uM by calcium flux assay

[7] = molecular target: T4, C-C chemokine receptor type 4 (Homo sapiens) (UniProt P51679); conditions: at 5 µM
T4 sequence (whole entry): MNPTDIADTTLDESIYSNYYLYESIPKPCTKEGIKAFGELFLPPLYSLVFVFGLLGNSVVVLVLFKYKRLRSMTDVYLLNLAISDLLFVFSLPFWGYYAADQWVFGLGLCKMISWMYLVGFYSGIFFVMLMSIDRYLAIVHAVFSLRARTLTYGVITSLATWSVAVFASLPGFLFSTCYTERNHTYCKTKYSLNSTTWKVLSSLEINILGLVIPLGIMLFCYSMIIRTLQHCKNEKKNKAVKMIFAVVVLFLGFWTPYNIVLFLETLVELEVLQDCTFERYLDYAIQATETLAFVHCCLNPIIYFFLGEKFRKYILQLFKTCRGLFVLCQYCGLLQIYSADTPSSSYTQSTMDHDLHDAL
Description: Antagonist activity at CCR4 at 5 uM by calcium flux assay

hERG (KCNH2) = hERG (KCNH2) (Homo sapiens, UniProt Q12809); test: Inhibition of human recombinant hERG expressed in CHO cells at 10 uM by automated patch clamp assay; conditions: CHO cells expressing human recombinant hERG
Chain of hERG (KCNH2) (Q12809 whole entry): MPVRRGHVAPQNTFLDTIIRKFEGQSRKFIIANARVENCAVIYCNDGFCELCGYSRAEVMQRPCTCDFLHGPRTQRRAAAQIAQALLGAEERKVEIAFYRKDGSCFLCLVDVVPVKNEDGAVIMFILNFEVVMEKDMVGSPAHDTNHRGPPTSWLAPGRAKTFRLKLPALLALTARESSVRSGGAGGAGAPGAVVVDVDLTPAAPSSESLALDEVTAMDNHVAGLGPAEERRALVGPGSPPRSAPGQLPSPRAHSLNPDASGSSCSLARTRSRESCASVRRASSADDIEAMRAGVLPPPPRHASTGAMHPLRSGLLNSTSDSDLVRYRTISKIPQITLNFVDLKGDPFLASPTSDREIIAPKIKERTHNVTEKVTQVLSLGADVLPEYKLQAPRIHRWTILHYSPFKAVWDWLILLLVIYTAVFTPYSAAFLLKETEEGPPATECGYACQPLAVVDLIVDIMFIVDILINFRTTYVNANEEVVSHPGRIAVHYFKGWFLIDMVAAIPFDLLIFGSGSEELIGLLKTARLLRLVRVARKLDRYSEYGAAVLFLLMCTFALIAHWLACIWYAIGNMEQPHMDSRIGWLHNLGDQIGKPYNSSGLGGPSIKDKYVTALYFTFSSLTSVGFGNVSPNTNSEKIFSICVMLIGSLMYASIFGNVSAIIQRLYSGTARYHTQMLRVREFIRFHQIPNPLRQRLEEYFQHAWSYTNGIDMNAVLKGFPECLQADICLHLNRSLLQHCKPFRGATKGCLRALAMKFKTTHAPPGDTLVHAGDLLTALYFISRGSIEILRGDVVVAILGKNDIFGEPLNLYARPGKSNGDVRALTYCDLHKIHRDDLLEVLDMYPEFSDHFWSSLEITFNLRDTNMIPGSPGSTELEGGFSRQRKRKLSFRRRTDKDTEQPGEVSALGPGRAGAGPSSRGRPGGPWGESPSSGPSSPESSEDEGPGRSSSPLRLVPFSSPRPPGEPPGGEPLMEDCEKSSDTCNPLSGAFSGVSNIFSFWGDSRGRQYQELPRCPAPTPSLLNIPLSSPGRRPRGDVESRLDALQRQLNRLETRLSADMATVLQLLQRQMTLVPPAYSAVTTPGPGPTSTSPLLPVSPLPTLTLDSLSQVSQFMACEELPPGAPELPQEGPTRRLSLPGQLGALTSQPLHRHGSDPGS

[8] = (§1) Fraction unbound in human plasma after 5 hrs
[9] = Cytotoxicity against human PBMC
[10] = Half life in dog at 5 umol/kg, iv; conditions: in vivo
[11] = Volume of distribution in dog at 5 umol/kg, iv; conditions: in vivo
[12] = Clearance in dog at 5 umol/kg, iv; conditions: in vivo
in vivo [13] = conditions: dog, po, 12.5 umol/kg
Description: Oral bioavailability in dog at 12.5 umol/kg

in vivo [14] = conditions: dog, plasma
in vivo [15] = conditions: dog, po
[16] = Cardiotoxicity in dog purkinje fiber assessed as change in action potential amplitude at 10 uM measured at basic cycle length of 0.5 seconds
[17] = Cardiotoxicity in dog purkinje fiber assessed as change in action potential amplitude at 10 uM measured at basic cycle length of 1 second
[18] = Cardiotoxicity in dog purkinje fiber assessed as change in action potential amplitude at 10 uM measured at basic cycle length of 2 seconds
[19] = Cardiotoxicity in dog purkinje fiber assessed as change in resting membrane potential at 10 uM measured at basic cycle length of 0.5 seconds
[20] = Cardiotoxicity in dog purkinje fiber assessed as change in resting membrane potential at 10 uM measured at basic cycle length of 1 second
[21] = Cardiotoxicity in dog purkinje fiber assessed as change in resting membrane potential at 10 uM measured at basic cycle length of 2 seconds
[22] = Cardiotoxicity in dog purkinje fiber assessed as change in action potential duration at 90% at 10 uM measured at basic cycle length of 0.5 seconds
[23] = Cardiotoxicity in dog purkinje fiber assessed as change in action potential duration at 90% at 10 uM measured at basic cycle length of 1 second
[24] = Cardiotoxicity in dog purkinje fiber assessed as change in action potential duration at 90% at 10 uM measured at basic cycle length of 2 seconds
[25] = Cardiotoxicity in dog purkinje fiber assessed as change in action potential duration at 60% at 10 uM measured at basic cycle length of 0.5 seconds
[26] = Cardiotoxicity in dog purkinje fiber assessed as change in action potential duration at 60% at 10 uM measured at basic cycle length of 1 second
[27] = Cardiotoxicity in dog purkinje fiber assessed as change in action potential duration at 60% at 10 uM measured at basic cycle length of 2 seconds
[28] = Toxicity in rat administered for 7 days; conditions: in vivo
[29] = molecular target: Voltage-gated inwardly rectifying potassium channel KCNH2 (Homo sapiens, UniProt Q12809); test: Inhibition of human recombinant hERG expressed in CHO cells by automated patch clamp assay
Chain of Voltage-gated inwardly rectifying potassium channel KCNH2 (Q12809 whole entry): as above

Plasma = test: as §1; conditions: 5 h

COCC(=O)N(Cc1ccsc1)C1CCN([C@H](C)CCNC(=O)c2c(C)cc(Cl)nc2C)CC1
IC50 [1]: 38 nM | inhibition [2]: inactive | inhibition [3]: inactive | inhibition [4]: inactive | inhibition [5]: inactive | inhibition [6]: inactive | inhibition [7]: inactive

CONC(=O)N(Cc1ccsc1)C1CCN([C@H](C)CCNC(=O)c2c(C)cc(Cl)[n+]([O-])c2Cl)CC1
inhibition at 10 µM (hERG (KCNH2)): 21% | fraction unbound at 5 h [8]: 0.31 | CC50 [9]: > 38500 nM | IC50 [1]: 7.3 nM | half-life [10]: 42 min | Vd [11]: 2.6 L/kg | clearance [12]: 40.3 mL/min/kg | bioavailability (in vivo [13]): 7% | AUC(0-inf) (in vivo [14]): 0.37 µM·h | Cmax (in vivo [15]): 260 nM

COCCONC(=O)N(Cc1ccsc1)C1CCN([C@H](C)CCNC(=O)c2c(C)cc(Cl)nc2C)CC1
Activity [16]: 1.2 mV | Activity [17]: 1.3 mV | Activity [18]: 2.4 mV | Activity [19]: -3.6 mV | Activity [20]: -2.8 mV | Activity [21]: -2.7 mV | Activity [22]: 10.5% | Activity [23]: 16.5% | Activity [24]: 22.6% | Activity [25]: 12.2% | Activity [26]: 18.1% | Activity [27]: 24.2% | fraction unbound at 5 h [8]: 0.43 | CC50 [9]: > 34400 nM | IC50 [1]: 21.3 nM | NOAEL at 168 h [28]: ≥ 400 mg/kg | inhibition [2]: inactive | inhibition [3]: inactive | inhibition [4]: inactive | inhibition [5]: inactive | inhibition [6]: inactive | inhibition [7]: inactive

Cc1cc(Cl)nc(C)c1C(=O)NCC[C@@H](C)N1CCC(N(Cc2ccsc2)C(=O)CC2CCOCC2)CC1
inhibition at 10 µM (hERG (KCNH2)): 67% | fraction unbound at 5 h [8]: 0.8 | CC50 [9]: > 35600 nM | IC50 [1]: 22.5 nM

CONC(=O)N(Cc1ccsc1)C1CCN([C@H](C)CCNC(=O)c2c(C)cc(C#N)nc2Cl)CC1
fraction unbound at 5 h [8]: 0.75 | CC50 [9]: > 38500 nM | IC50 [1]: 2.9 nM | Vd [11]: 6.3 L/kg | clearance [12]: 39.2 mL/min/kg | bioavailability (in vivo [13]): 60% | AUC(0-inf) (in vivo [14]): 3.24 µM·h | Cmax (in vivo [15]): 1940 nM

Cc1cc(C#N)nc(C)c1C(=O)NCC[C@@H](C)N1CCC(N(Cc2ccsc2)C(=O)CC2CCOCC2)CC1
inhibition at 10 µM (hERG (KCNH2)): 61% | fraction unbound at 5 h [8]: 0.85 | CC50 [9]: > 36200 nM | IC50 [1]: 16.1 nM

CONC(=O)N(Cc1ccsc1)C1CCN([C@H](C)CCNC(=O)c2c(C)cc(Cl)nc2C)CC1
IC50 [1]: 14.8 nM | inhibition [2]: inactive | inhibition [3]: inactive | inhibition [4]: inactive | inhibition [5]: inactive | inhibition [6]: inactive | inhibition [7]: inactive

CC(=O)N(Cc1ccsc1)C1CCN([C@H](C)CCNC(=O)c2c(C)cc(Cl)nc2C)CC1
IC50 [1]: 138 nM

Cc1cc(Cl)nc(C)c1C(=O)NCC[C@@H](C)N1CCC(N(Cc2ccsc2)C(=O)NO)CC1
inhibition at 10 µM (hERG (KCNH2)): 44% | fraction unbound at 5 h [8]: 0.4 | CC50 [9]: > 38500 nM | IC50 [1]: 344 nM

COc1ccc(N(Cc2ccsc2)C2CCN([C@H](C)CCNC(=O)c3c(C)ncnc3C)CC2)cc1
inhibition at 10 µM (hERG (KCNH2)): 97% | fraction unbound at 5 h [8]: 0.91 | CC50 [9]: > 38700 nM | IC50 [1]: 65.9 nM

CNC(=O)N(Cc1ccsc1)C1CCN([C@H](C)CCNC(=O)c2c(C)cc(Cl)nc2C)CC1
IC50 [29]: 1600 nM | inhibition at 10 µM (hERG (KCNH2)): 73% | fraction unbound at 5 h [8]: 0.46 | CC50 [9]: > 40600 nM | IC50 [1]: 15.5 nM

CONC(=O)N(Cc1ccsc1)C1CCN([C@H](C)CCNC(=O)c2c(C)cc(C(=O)NC(C)C)nc2C)CC1
IC50 [1]: 4.8 nM | inhibition [2]: inactive | inhibition [3]: inactive | inhibition [4]: inactive | inhibition [5]: inactive | inhibition [6]: inactive | inhibition [7]: inactive

Cc1cc(Cl)nc(C)c1C(=O)NCC[C@@H](C)N1CCC(N(Cc2ccsc2)C(=O)Nc2cccnc2)CC1
inhibition at 10 µM (hERG (KCNH2)): 20% | fraction unbound at 5 h [8]: 0.46 | CC50 [9]: > 32400 nM | IC50 [1]: 34.4 nM

COc1ccc(N(Cc2cnccc2C)C2CCN([C@H](C)CCNC(=O)c3c(C)ncnc3C)CC2)cc1
inhibition at 10 µM (hERG (KCNH2)): 58% | Fu (Plasma): 83% | CC50 [9]: > 38300 nM | IC50 [1]: 1830 nM
